Assay results taken from patent publication US20240115550A1, “TREATMENT OF MENTAL DISORDERS” (GH Research Ireland Limited, priority 2022, published 2024).
Several values for one entry are separate records, joined by “and”; a condition that tells them apart may be missing. Equal entries are not always repeated.

How the values were obtained:
[1] = Pharmacokinetics after single inhaled dose; format: in vivo, human
[2] = tested on: Salmonella typhimurium (TA98, TA100, TA1535 and TA1537); assay: Bacterial mutation test, Salmonella typhimurium; format: cell-based; conditions: up to 5000 μg/plate, absence and presence of S-9
Method: (§1) These conditions included treatments at concentrations up to 5000 μg/plate (the maximum recommended concentration according to current regulatory guidelines), in the absence and in the presence of a rat liver metabolic activation system (S-9).

[3] = tested on: Escherichia coli (WP2 uvrA pKM101); assay: Bacterial mutation test, Escherichia coli; format: cell-based; conditions: up to 5000 μg/plate, absence and presence of S-9
Method: as §1

[4] = tested on: patients with postpartum depression (PPD); assay: Clinical trial of inhaled 5-MeO-DMT in postpartum depression; format: in vivo, human; conditions: for MADRS response (>=50% improvement) and remission (total <=10): 6 mg then 12 mg
Method: The single-arm, open-label clinical trial will involve 15 adult female patients with clinically diagnosed postpartum depression (PPD).
The second dose (12 mg) will only be administered if: • a. A peak experience (total score of ≥75) has not been achieved following the 6 mg dose, and • b. The 6 mg dose was safe and well-tolerated according to the investigator, • c. Any psychoactive effects (PsE) of the prior dose have subsided, and • d. Pre-dose vital parameters and forced expiratory volume in one second (FEV1) are in normal range, or if outside of the normal range, are not clinically significant according to the investigator. • 3. Similarly, a third dose (18 mg) will only be administered if: • a. A peak experience (total score of ≥75) has not been achieved following the 12 mg dose, and • b. The 12 mg dose was safe and well-tolerated according to the investigator, and • c. Any PsE of the prior dose have subsided, and • d. Pre-dose vital parameters and forced expiratory volume in one second (FEV1) are in normal range, or if outside of the normal range, are not clinically significant according to the investigator.
The patients will be assessed for a peak psychedelic experience (based on a patient-scored visual analogue scale, the PE scale), sedation, and other endpoints after dosing. Follow-up visits are planned for Day 1, and Day 7 after the dosing day.
The following criteria must be met by all patients considered for clinical trial participation: • 1. Is female and in the age range between 18 and 45 years (inclusive) at screening. • 2. Has a body mass index (BMI) in the range of 18.5 and 35 kg/m^2 (inclusive) at screening. • 3. Meets the trial criteria for PPD as assessed by a trial psychiatrist or registered psychologist: • a. Diagnosis of Major Depressive Disorder without psychotic features, confirmed by the Mini-International Neuropsychiatric Interview (MINI), with peri-partum onset that began no earlier than gestation and no later than the first 4 weeks postpartum. • b. Has a Montgomery-Åsberg Depression Rating Scale (MADRS) total score of equal to or greater than 28 at screening and pre-dose on Day 0. • 6. […] Patients must have a negative pregnancy test at screening and on the pre-test day (Day −1). • 5. Is willing to delay start of other antidepressant or anxiety medication until after the end of the trial at Day 7 and agrees to keep any psychotherapy unchanged during the trial.
A potential patient who meets any of the following key exclusion criteria will be excluded from participation in this trial: • 1. Has, based on history, psychiatric assessment, and evaluation of the MINI, a current or prior diagnosis of bipolar disorder, a manic or hypomanic episode, a psychotic disorder, Major Depressive Disorder (MDD) or other mood disorder with psychotic features, obsessive compulsive disorder, post-traumatic stress disorder (PTSD), autism spectrum disorder, borderline personality disorder, schizophrenia, delusional disorder, paranoid personality disorder, schizoaffective disorder, clinically significant intellectual disability, or any other psychiatric comorbidity that renders the patient unsuitable for the trial according to the investigator's judgment. • 2. Has one or more first or second degree relatives with a current or previously diagnosed bipolar disorder, psychotic disorder or other mood disorder (including MDD) with psychotic features. • 3. Is in the judgement of a trial psychiatrist or registered psychologist, at significant risk for suicide based on history, psychiatric assessment, and evaluation of suicidal ideation and suicidal behaviour based on the Columbia-Suicide Severity Rating Scale (C-SSRS). • 4. Has taken anti-depressive medication within 14 days or 5 half-lives (whichever is longer) prior to dosing (exception: within the last 5 weeks in the case of fluoxetine). • 5.

[5] = Infant exposure estimate (DID, RID) from breast milk concentrations
[6] = LC-MS/MS of 5-MeO-DMT and metabolites in breastmilk, serum and urine of a lactating PPD patient
[7] = tested on: human hepatocytes (Hμrel HumanPool co-culture); assay: Metabolic stability in Hμrel human hepatocyte co-culture; format: in vitro ADME
Method: The incubations were performed using 1 and 10 μM initial concentrations and sampling at 0, 1, 2, 4, 8, 24, 48, and 72 hours (h) time points. The samples were analysed using UPLC/QE-orbitrap-MS.

human plasma protein = assay: Plasma binding of 5-MIAA; format: in vitro ADME
Method: Binding to human plasma protein was determined. Reported are the unbound fraction (fu) for three replicates as well as the mean unbound fraction, the standard deviation and the mean % recovery (Table 8).

[8] = female, human, breast milk, inhaled
[9] = 2.5 hours after last 5-MeO-DMT dose

## COc1ccc2[nH]cc(CCN(C)C)c2c1 [5-MeO-DMT]
[1]; 3 hours after inhalation
  detectability in plasma: no longer detectable
[1]; repeated within 1 to 4 hours
  accumulation upon repeated administration: No accumulation
[2]
  mutation induction: did not induce mutation
[3]
  mutation induction: did not induce mutation
[4]; first PPD patient
  MADRS response (>=50% improvement) and remission (total <=10): fulfilled standard criteria
[4]; first PPD patient, Day 7
  BIMF management domain, percentage improvement: 18%
  BIMF self-care domain, percentage improvement: 44%
[4]; first PPD patient: cramping left abdominal pain and headache, Day 0
  adverse events: mild, short-lasting and resolved spontaneously
[4]; first PPD patient, Day 1, as E149
  MADRS item score: 0
[4]; first PPD patient, Day 1, rows as E155
  BPRS item score: 1
[4]; first PPD patient, Day 7, rows as E155
  BPRS item score: 1
[4]; first PPD patient, Discharge, item by row: r24 Somatic Concern, r25 Anxiety, r26 Emotional withdrawal, r28 Conceptual disorganization, r30 Guilt feelings, r31 Tension, r32 Mannerisms and Posturing, r34 Grandiosity, r35 Depressive Mood, r36 Hostility, r37 Suspiciousness, r38 Hallucinatory behaviour, r40 Motor retardation, r41 Uncooperativeness, r42 Unusual Thought Content, r44 Blunted affect, r45 E
  BPRS item score: 1
[4]; second PPD patient
  MADRS response (>=50% improvement) and remission (total <=10): fulfilled standard criteria
[4]; second PPD patient: vomiting Day 0, headache Day 5
  adverse events: mild, short-lasting and resolved spontaneously
[5]; 5 kg infant
  Daily Infant Dosage (DID) per kg: 0.0001385 mg/kg/day
[6]; after 24 hours
  detection in breast milk: did not detect
[6]; [8]
  concentration at 2.5 h: 561 µg/mL
  concentration at 8.5 h: 42.1 µg/mL

## COc1ccc2[nH]cc(CCO)c2c1 [5-methoxytryptophol, 5-methoxyindole-3-ethanol]
[7]; 0 h, incubation by row: r7 1 μM Hepatocytes, r8 1 μM Stromal cells, r9 10 μM Hepatocytes, r10 10 μM Stromal cells
  relative LC/MS peak area for 5-methoxytryptophol: 100%
[7]; 1 h, as E141
  relative LC/MS peak area for 5-methoxytryptophol: 79% and 87%
[7]; 2 h, as E141
  relative LC/MS peak area for 5-methoxytryptophol: 57% and 81%
[7]; in 24 h with hepatocytes
  metabolic turnover: complete disappearance

## 5-methoxyindole acetic acid [5-MIAA]
[7]; after 72h with hepatocytes, 1 and 10 μM
  remaining abundance: 75-82%
[7]; human hepatocytes, 1 μM
  in vitro intrinsic clearance: 0.15 μl/min/million cells
Human plasma protein; from mean fraction unbound
  plasma binding: ~50%
Human plasma protein; human plasma
  Mean % Recovery: 81.4%
  unbound fraction (fu), Replicate 1: 0.499
  unbound fraction (fu), Replicate 2: 0.462
  unbound fraction (fu), Replicate 3: 0.544
Human plasma protein; human plasma, three replicates
  Mean fu: 0.502
[5]; 5 kg infant
  DID per kg: 0.001377 mg/kg/day
[5]; three feeds of 250 ml
  total exposure of the infant (DID): 0.006886 mg 5-MIAA/day
[6]; 5-MIAA at 2.5 hours
  urine concentration, times higher than in serum: approx. 127 times
[6]; 1 hour after last 5-MeO-DMT dose
  5-MIAA concentration in breast milk: 13945.2
[6]; [9]
  5-MIAA concentration in breast milk: 13240.9
  5-MIAA urine concentration: 12
[6]; 8.5 hours after last 5-MeO-DMT dose
  5-MIAA concentration in breast milk: 359.4

## CN(C)CCc1c[nH]c2ccc(O)cc12 [bufotenine]
[1]; after 5-MeO-DMT, in no case detected 15 minutes after administration
  detection in human serum: barely detected
[6]; any time point after 5-MeO-DMT
  detection in serum and breastmilk: not detected
[6]; times by row as E172
  Bufotenine in Breastmilk: BLQ (Below limit of quantification. The lower limit of quantification is 25 pg/ml for both 5-MeO-DMT and 5-MIAA in both serum and breastmilk; it is 25 pg/ml in urine for 5-MeO-DMT and 250 pg/ml for 5-MIAA in urine.)
  Bufotenine in Serum: BLQ (Below limit of quantification. The lower limit of quantification is 25 pg/ml for both 5-MeO-DMT and 5-MIAA in both serum and breastmilk; it is 25 pg/ml in urine for 5-MeO-DMT and 250 pg/ml for 5-MIAA in urine.)
